From the supplement of paper PMC10307832 come the findings set out here.

Assay in all cases: relative viability (nuclei count vs DMSO), 5 days (fraction); higher = more cells survive
Compound in assay [1]: COC1=CC=C(C=C1)CN2C=CC3=C2C=C(C=C3)C(=O)NO + CCNC(=O)c1noc(-c2cc(C(C)C)c(O)cc2O)c1-c1ccc(CN2CCOCC2)cc1 [Luminespib] (partner 0.01 µM)
Summed up: (§1)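 Relative viability divides the nuclei count in treated wells by that in vehicle wells. Lung cancer cell lines were seeded in 1536-well plates, dosed by pin tool the next day, and fixed and stained after 5 days in one step with final 0.05% Triton X-100, 1% formaldehyde and 1 ug/ml Hoechst. Dosing was a single drug or a fixed anchor-drug dose plus five library-drug doses (not always all listed) in √10 steps, and values are medians of duplicate plates imaged at 4×.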

Compound in assay [2]: COC1=CC=C(C=C1)CN2C=CC3=C2C=C(C=C3)C(=O)NO + N=C(N)NC(=N)NCCc1ccccc1 [Phenformin] (partner 250 µM)
In a few lines:
as §1

Compound in assay [3]: COC1=CC=C(C=C1)CN2C=CC3=C2C=C(C=C3)C(=O)NO + Nc1ncn([C@H]2C[C@H](O)[C@@H](CO)O2)c(=O)n1 [Decitabine] (partner 2 µM)
In a few lines:
as §1

Compound in the assay “Veliparib + Linsitinib”: C[C@]1(c2nc3c(C(N)=O)cccc3[nH]2)CCCN1 [Veliparib] + C[C@]1(O)C[C@@H](c2nc(-c3ccc4ccc(-c5ccccc5)nc4c3)c3c(N)nccn32)C1 [Linsitinib] (partner 1 µM)
Summed up: as §1

NCI-H1793: the relative viability in assay [1] (first compound 0.253 µM) came out at 0.184; in assay [1] (first compound 0.8 µM) it was 0.17; in assay [1] (first compound 2.53 µM) it was 0.18; in assay [1] (first compound 8 µM), 0.219; in assay [2] (first compound 0.253 µM) it was 0.457; in assay [2] (first compound 0.8 µM), 0.438. Further, the relative viability in assay [2] (first compound 2.53 µM) is 0.414; in assay [2] (first compound 8 µM) it was 0.368; in assay [3] (first compound 0.253 µM), 0.678; in assay [3] (first compound 0.8 µM) it was 0.592; in assay [3] (first compound 2.53 µM), 0.662; in assay [3] (first compound 8 µM), 0.286. The relative viability amounted to 0.864 with Veliparib + Linsitinib (first compound 0.02 µM); 0.804 with Veliparib + Linsitinib (first compound 0.06325 µM); 0.956 with Veliparib + Linsitinib (first compound 0.2 µM); 0.728 with Veliparib + Linsitinib (first compound 0.6325 µM); 0.828 in the assay with Veliparib + Linsitinib (first compound 2 µM).
For NCI-H1944, the relative viability in assay [1] (first compound 0.253 µM) was 0.788; in assay [1] (first compound 0.8 µM), 0.791; in assay [1] (first compound 2.53 µM), 0.748; in assay [1] (first compound 8 µM), 0.728; in assay [2] (first compound 0.253 µM), 0.234; in assay [2] (first compound 0.8 µM) it was 0.195. In addition, the relative viability in assay [2] (first compound 2.53 µM) came out at 0.188; in assay [2] (first compound 8 µM) it was 0.165; in assay [3] (first compound 0.253 µM) it was 0.431; in assay [3] (first compound 0.8 µM) it was 0.384; in assay [3] (first compound 2.53 µM), 0.456; in assay [3] (first compound 8 µM), 0.406. Besides, the relative viability was determined as 1.21 in the assay with Veliparib + Linsitinib (first compound 0.02 µM); 1.17 with Veliparib + Linsitinib (first compound 0.06325 µM); 1.06 with Veliparib + Linsitinib (first compound 0.2 µM); 1.19 in the assay with Veliparib + Linsitinib (first compound 0.6325 µM); 1.12 with Veliparib + Linsitinib (first compound 2 µM).
Turning to NCI-H1734, the relative viability came out at 0.219 in assay [1] (first compound 0.253 µM); 0.218 in assay [1] (first compound 0.8 µM); 0.181 in assay [1] (first compound 2.53 µM); 0.184 in assay [1] (first compound 8 µM); 0.413 in assay [2] (first compound 0.253 µM); 0.386 in assay [2] (first compound 0.8 µM). Moreover, the relative viability was 0.392 in assay [2] (first compound 2.53 µM); 0.383 in assay [2] (first compound 8 µM); 0.507 in assay [3] (first compound 0.253 µM); 0.527 in assay [3] (first compound 0.8 µM); 0.534 in assay [3] (first compound 2.53 µM); 0.48 in assay [3] (first compound 8 µM). Further, the relative viability with Veliparib + Linsitinib (first compound 0.02 µM) was 0.925; with Veliparib + Linsitinib (first compound 0.06325 µM), 0.85; with Veliparib + Linsitinib (first compound 0.2 µM), 0.917; with Veliparib + Linsitinib (first compound 0.6325 µM), 0.805; with Veliparib + Linsitinib (first compound 2 µM), 0.928.
For H3255, the relative viability in assay [1] (first compound 0.08 µM) was found to be 0.846; in assay [1] (first compound 0.253 µM) it was 0.789; in assay [1] (first compound 0.8 µM), 1.03; in assay [1] (first compound 2.53 µM), 0.896; in assay [1] (first compound 8 µM) it was 0.589; in assay [2] (first compound 0.08 µM) it was 0.334. Also, the relative viability in assay [2] (first compound 0.253 µM) came out at 0.39; in assay [2] (first compound 0.8 µM), 0.347; in assay [2] (first compound 2.53 µM), 0.353; in assay [2] (first compound 8 µM), 0.359; in assay [3] (first compound 0.08 µM), 0.565; in assay [3] (first compound 0.253 µM), 0.551. Besides, the relative viability in assay [3] (first compound 0.8 µM) came to 0.627; in assay [3] (first compound 2.53 µM), 0.55; in assay [3] (first compound 8 µM), 0.567; in the assay with Veliparib + Linsitinib (first compound 0.02 µM), 0.882; with Veliparib + Linsitinib (first compound 0.06325 µM) it was 0.981; with Veliparib + Linsitinib (first compound 0.2 µM), 0.953. Further, the relative viability is 0.833 with Veliparib + Linsitinib (first compound 0.6325 µM) and 0.981 in the assay with Veliparib + Linsitinib (first compound 2 µM).
